From patent US7745575B1 (Cellpep Pharma Inc., priority 2004, dated 2010)
Bridge positions count the residues as written; N and C are the ends. Peptide text beside a SMILES is read from it.

Test: toxicity in vivo, LD50 after intracerebroventricular injection
Conditions: mouse, icv or intrathecal, 20 g C57/BL6 mice
Procedure: Groups of six to eight mice per dose were injected with 5 μl peptide solution containing 0.1% (w/v) bovine serum albumin and 0.9% (w/v) NaCl. The LD50 values are set out in Table 5.

| SMILES | LD50 |
| --- | --- |
| CC[C@H](C)[C@@H]1NC(=O)[C@H](CCCCN)NC(=O)[C@@H](NC(=O)[C@H](CCCCN)NC(=O)[C@@H](NC(=O)[C@@H](N)CC(N)=O)C(C)C)CSSC[C@@H]2NC(=O)[C@H](CCCCN)NC(=O)CNC(=O)[C@H](Cc3ccccc3)NC(=O)[C@H](CCCNC(=N)N)NC(=O)[C@H](CCSC)NC(=O)CNC(=O)[C@H](C)NC(=O)[C@H](CC(=O)O)NC(=O)[C@H](CCCCN)NC(=O)[C@@H]3CSSC[C@@H](C(=O)N[C@H](C(=O)N4CCC[C@H]4C(=O)N[C@@H](CCCCN)C(=O)O)[C@@H](C)O)NC(=O)[C@H](Cc4c[nH]cn4)NC(=O)[C@H](CSSC[C@H](NC(=O)[C@H](CCC(N)=O)NC(=O)[C@H](CCCNC(=N)N)NC(=O)[C@H](CO)NC1=O)C(=O)N[C@@H](CC(C)C)C(=O)N[C@@H](CCCCN)C(=O)N1CCC[C@H]1C(=O)N3)NC(=O)[C@H](CCCCN)NC(=O)CNC(=O)[C@H](CC(N)=O)NC(=O)[C@H](CCSC)NC2=O (H-NVKCKISRQCLKPCKDAGMRFGKCMNGKCHCTPK-OH; disulfide 4-24, 10-29, 14-31) | 5 µg/kg |
| CC[C@H](C)[C@@H]1NC(=O)[C@H](CCCCN)NC(=O)[C@@H](NC(=O)[C@H](CCCCN)NC(=O)[C@@H](NC(=O)[C@H](CC(N)=O)NC(=O)[C@@H](NC(=O)[C@@H](NC(=O)[C@@H](NC(=O)CN)C(C)C)[C@@H](C)CC)[C@@H](C)CC)C(C)C)CSSC[C@@H]2NC(=O)[C@H](CCCCN)NC(=O)CNC(=O)[C@H](Cc3ccccc3)NC(=O)[C@H](CCCNC(=N)N)NC(=O)[C@H](CCSC)NC(=O)CNC(=O)[C@H](C)NC(=O)[C@H](CC(=O)O)NC(=O)[C@H](CCCCN)NC(=O)[C@@H]3CSSC[C@@H](C(=O)N[C@H](C(=O)N4CCC[C@H]4C(=O)N[C@@H](CCCCN)C(=O)O)[C@@H](C)O)NC(=O)[C@H](Cc4c[nH]cn4)NC(=O)[C@H](CSSC[C@H](NC(=O)[C@H](CCC(N)=O)NC(=O)[C@H](CCCNC(=N)N)NC(=O)[C@H](CO)NC1=O)C(=O)N[C@@H](CC(C)C)C(=O)N[C@@H](CCCCN)C(=O)N1CCC[C@H]1C(=O)N3)NC(=O)[C@H](CCCCN)NC(=O)[C@H](CCCNC(=N)N)NC(=O)[C@H](CC(N)=O)NC(=O)[C@H](CCSC)NC2=O | 5 µg/kg |
| CC[C@H](C)[C@@H]1NC(=O)[C@H](CCCCN)NC(=O)[C@@H](NC(=O)[C@H](CCCCN)NC(=O)[C@@H](NC(=O)[C@H](CC(N)=O)NC(=O)[C@@H](NC(=O)[C@@H](NC(=O)[C@@H](N)[C@@H](C)O)[C@@H](C)CC)[C@@H](C)CC)C(C)C)CSSC[C@@H]2NC(=O)[C@H](CCCCN)NC(=O)CNC(=O)[C@H](Cc3ccccc3)NC(=O)[C@H](CCCNC(=N)N)NC(=O)[C@H](CCSC)NC(=O)CNC(=O)[C@H](C)NC(=O)[C@H](CC(=O)O)NC(=O)[C@H](CCCCN)NC(=O)[C@@H]3CSSC[C@@H](C(=O)N[C@H](C(=O)N4CCC[C@H]4C(=O)N[C@@H](CCCCN)C(=O)O)[C@@H](C)O)NC(=O)[C@H](Cc4c[nH]cn4)NC(=O)[C@H](CSSC[C@H](NC(=O)[C@H](CCC(N)=O)NC(=O)[C@H](CCCNC(=N)N)NC(=O)[C@H](CO)NC1=O)C(=O)N[C@@H](CC(C)C)C(=O)N[C@@H](CCCCN)C(=O)N1CCC[C@H]1C(=O)N3)NC(=O)[C@H](CCCCN)NC(=O)CNC(=O)[C@H](CC(N)=O)NC(=O)[C@H](CCSC)NC2=O (H-TIINVKCKISRQCLKPCKDAGMRFGKCMNGKCHCTPK-OH; disulfide 7-27, 13-32, 17-34) | 3 µg/kg |
| CC[C@H](C)[C@@H]1NC(=O)[C@H](CCCCN)NC(=O)[C@@H](NC(=O)[C@@H](N)CCCCN)CSSC[C@@H]2NC(=O)[C@H](CCCCN)NC(=O)CNC(=O)[C@H](Cc3ccccc3)NC(=O)[C@H](CCCNC(=N)N)NC(=O)[C@H](CCSC)NC(=O)CNC(=O)[C@H](C)NC(=O)[C@H](CC(=O)O)NC(=O)[C@H](CCCCN)NC(=O)[C@@H]3CSSC[C@@H](C(=O)N[C@H](C(=O)N4CCC[C@H]4C(=O)N[C@@H](CCCCN)C(=O)O)[C@@H](C)O)NC(=O)[C@H](Cc4c[nH]cn4)NC(=O)[C@H](CSSC[C@H](NC(=O)[C@H](CCC(N)=O)NC(=O)[C@H](CCCNC(=N)N)NC(=O)[C@H](CO)NC1=O)C(=O)N[C@@H](CC(C)C)C(=O)N[C@@H](CCCCN)C(=O)N1CCC[C@H]1C(=O)N3)NC(=O)[C@H](CCCCN)NC(=O)CNC(=O)[C@H](CC(N)=O)NC(=O)[C@H](CCSC)NC2=O (H-KCKISRQCLKPCKDAGMRFGKCMNGKCHCTPK-OH; disulfide 2-22, 8-27, 12-29) | 6.5 µg/kg |
| CC[C@H](C)[C@@H]1NC(=O)[C@H](CCCCN)NC(=O)[C@@H](NC(=O)[C@H](CCCCN)NC(=O)[C@@H](NC(=O)[C@H](CC(N)=O)NC(=O)[C@@H](NC(=O)[C@@H](NC(=O)[C@@H](N)C(C)C)[C@@H](C)CC)[C@@H](C)CC)C(C)C)CSSC[C@@H]2NC(=O)[C@H](CCCCN)NC(=O)CNC(=O)[C@H](Cc3ccccc3)NC(=O)[C@H](CCCNC(=N)N)NC(=O)[C@H](CCSC)NC(=O)CNC(=O)[C@H](C)NC(=O)[C@H](CC(=O)O)NC(=O)[C@H](CCCCN)NC(=O)[C@@H]3CSSC[C@@H](C(=O)N[C@H](C(=O)N4CCC[C@H]4C(=O)N[C@@H](CCCCN)C(N)=O)[C@@H](C)O)NC(=O)[C@H](Cc4c[nH]cn4)NC(=O)[C@H](CSSC[C@H](NC(=O)[C@H](CCC(N)=O)NC(=O)[C@H](CCCNC(=N)N)NC(=O)[C@H](CO)NC1=O)C(=O)N[C@@H](CC(C)C)C(=O)N[C@@H](CCCCN)C(=O)N1CCC[C@H]1C(=O)N3)NC(=O)[C@H](CCCCN)NC(=O)CNC(=O)[C@H](CC(N)=O)NC(=O)[C@H](CCSC)NC2=O (H-VIINVKCKISRQCLKPCKDAGMRFGKCMNGKCHCTPK-NH2; disulfide 7-27, 13-32, 17-34) | 4.5 µg/kg |
| CC[C@H](C)[C@@H]1NC(=O)[C@H](CCCCN)NC(=O)[C@@H](NC(=O)[C@H](CCCCN)NC(=O)[C@@H](NC(=O)[C@H](CC(N)=O)NC(=O)[C@@H](NC(=O)[C@@H](NC(=O)[C@@H](NC(=O)CN)C(C)C)[C@@H](C)CC)[C@@H](C)CC)C(C)C)CSSC[C@@H]2NC(=O)[C@H](CCCCN)NC(=O)CNC(=O)[C@H](Cc3ccccc3)NC(=O)[C@H](CCCNC(=N)N)NC(=O)[C@H](CCSC)NC(=O)CNC(=O)[C@H](C)NC(=O)[C@H](CC(=O)O)NC(=O)[C@H](CCCCN)NC(=O)[C@@H]3CSSC[C@@H](C(=O)N[C@H](C(=O)N4CCC[C@H]4C(=O)N[C@@H](CCCCN)C(=O)O)[C@@H](C)O)NC(=O)[C@H](Cc4c[nH]cn4)NC(=O)[C@H](CSSC[C@H](NC(=O)[C@H](CCC(N)=O)NC(=O)[C@@H]4CCCN4C(=O)[C@H](CO)NC1=O)C(=O)N[C@@H](CC(C)C)C(=O)N[C@@H](CCCCN)C(=O)N1CCC[C@H]1C(=O)N3)NC(=O)[C@H](CCCCN)NC(=O)CNC(=O)[C@H](CC(N)=O)NC(=O)[C@H](CCSC)NC2=O (H-GVIINVKCKISPQCLKPCKDAGMRFGKCMNGKCHCTPK-OH; disulfide 8-28, 14-33, 18-35) | 7.5 µg/kg |
